# Source: ChEMBL document CHEMBL5604062, “ASAP - ZIKV NS2B-NS3 protease fluorescence dose response” (2024)
# Target: Nonstructural protein 3 (Zika virus, UniProt A0A024AXB9)
# Assay: Functional biochemical assay to identify treatments for viral infectious disease that targets Zika NS2B-NS3 protease. Utilizing a direct enzyme activity measurement method, reading the fluorescence intensity is used to characterize the relative potency of inhibitors as IC50.
# Parameters: species or system PRVABC59
# Nonstructural protein 3, sequence (A0A024AXB9 whole entry): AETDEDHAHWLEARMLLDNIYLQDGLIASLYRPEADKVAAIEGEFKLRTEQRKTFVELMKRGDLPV
row,IC50,SMILES
1,> 99.5 µM,CCn1c(=O)c(N2CC[C@H](CO)C2)nc2ccc(C(N)=O)cc21
2,> 99.5 µM,O=C(Nc1cc(Cl)cc(C(=O)Nc2ccc3c(c2)C[C@H](O)C3)c1)OCc1ccccc1
3,2.49 µM,N[C@H]1Cc2ccc(NC(=O)c3cc(Cl)cc(NC(=O)OCc4ccccc4)c3)cc2C1
4,> 99.5 µM,CCn1c(=O)c(N2CC[C@H](CO)C2)nc2cc(C(N)=O)ccc21
5,> 99.5 µM,O=C(Nc1cc(Cl)cc(C(=O)Nc2ccc(S(=O)(=O)N3CCNCC3)cc2)c1)OCc1ccccc1
6,> 99.5 µM,Cc1c(C(=O)Nc2cccc(CN)c2)cc(C2CC2)n1C
7,> 99.5 µM,O=C(Nc1cc(Cl)cc(C(=O)Nc2ccc3c(c2)OCO3)c1)OCc1ccccc1
8,7.17 µM,NCc1cccc(NC(=O)c2cc(Cl)cc([C@H]3CCCCN3)c2)c1
9,> 99.5 µM,Cc1c(C(=O)Nc2cccc(CN)c2)cc(C(C)C)n1C
10,> 99.5 µM,CCc1cc(C(=O)Nc2cccc(CN)c2)sc1C
11,> 99.5 µM,Cc1onc(C(=O)Nc2cccc(CN)c2)c1COc1cccc(F)c1
12,30.6 µM,NCc1ccc(C#CCO)c(NC(=O)c2cc(Cl)cc(NC(=O)OCc3ccccc3)c2)c1
13,> 99.5 µM,Cc1nn(CCO)c(C(F)F)c1C(=O)Nc1cccc(CN)c1
14,> 99.5 µM,NCc1cccc(NC(=O)c2c(C(F)(F)F)nc3n2CCCC3)c1
15,> 99.5 µM,Cc1cnnc(C(=O)Nc2cccc(CN)c2)c1
16,> 99.5 µM,N#CC[C@H](N)c1cccc(NC(=O)c2cc(Cl)cc(NC(=O)OCc3ccccc3)c2)c1
17,5.64 µM,O=C(Nc1cc(Cl)cc(C(=O)Nc2ccc(OC3CNC3)cc2)c1)OCc1ccccc1
18,> 99.5 µM,Cc1nc(N2CCOCC2)sc1CC(=O)Nc1cccc(CN)c1
19,5.42 µM,NCCCCc1ccc(NC(=O)c2cc(Cl)cc(NC(=O)OCc3ccccc3)c2)cc1
20,19.8 µM,CS(=O)(=O)c1ccc(CN)cc1NC(=O)c1cc(Cl)cc(NC(=O)OCc2ccccc2)c1
21,> 99.5 µM,O=C(O)CCc1ccc(NC(=O)c2cc(Cl)cc(NC(=O)OCc3ccccc3)c2)cc1

row,IC50,SMILES
1,> 99.5 µM,CC(C)c1occ(C(F)(F)F)c1C(=O)Nc1cccc(CN)c1
2,> 99.5 µM,NCc1ccc(COc2ccc(-c3ccc(N)nc3)c3c2OB(O)CC3)cc1
3,> 99.5 µM,NCc1nc(-c2ccc(NC(=O)c3cc(Cl)cc(NC(=O)OCc4ccccc4)c3)cc2)n[nH]1
4,> 99.5 µM,NCc1cccc(NC(=O)[C@H]2CC(=O)Nc3ccc(Br)cc32)c1
5,> 99.5 µM,O=C(Nc1cc(Cl)cc(C(=O)Nc2ccc([C@H]3CNCCO3)cc2)c1)OCc1ccccc1
6,> 99.5 µM,Cn1nc(C(=O)Nc2cccc(CN)c2)cc1C1CC1
7,> 99.5 µM,NC[C@H]1C[C@H]1NC(=O)c1cc(Cl)cc(NC(=O)OCc2ccccc2)c1
8,> 99.5 µM,CCc1onc(C2CCOCC2)c1C(=O)Nc1cccc(CN)c1
9,84 µM,O=C(Nc1cc(Cl)cc(C(=O)Nc2cccc(C(=O)O)c2)c1)OCc1ccccc1
10,21.5 µM,NC[C@H]1C[C@@H]1NC(=O)c1cc(Cl)cc(NC(=O)OCc2ccccc2)c1
11,> 99.5 µM,O=C(Nc1cc(Cl)cc(C(=O)Nc2ccc3c(c2)COC3)c1)OCc1ccccc1
12,8.78 µM,O=C(Nc1cc(Cl)cc(C(=O)Nc2ccc(N3CCCNCC3)cc2)c1)OCc1ccccc1
13,> 99.5 µM,NCc1cccc(NC(=O)[C@H]2CCCN(C(=O)CC3CC3)C2)c1
14,> 99.5 µM,NCc1cccc(NC(=O)c2nc(C3CC3)n(-c3ccccc3Cl)n2)c1
15,5.43 µM,O=C(Nc1cc(Cl)cc(C(=O)Nc2ccc([C@H]3CCNC3)cc2)c1)OCc1ccccc1
16,5.23 µM,O=C(Nc1cc(Cl)cc(C(=O)Nc2ccc(CC3CCNCC3)cc2)c1)OCc1ccccc1
17,1.48 µM,O=C(Nc1cc(Cl)cc(C(=O)Nc2ccc3c(c2)CCNC3)c1)OCc1ccccc1
18,> 99.5 µM,CN(C)[C@H](C(=O)Nc1cccc(CN)c1)c1cc(Cl)cc(Cl)c1
19,> 99.5 µM,O=C(Nc1cc(Cl)cc(C(=O)Nc2ccc3c(c2)C(=O)OC3)c1)OCc1ccccc1
20,> 99.5 µM,O=C(O)Cc1cccc(NC(=O)c2cc(Cl)cc(NC(=O)OCc3ccccc3)c2)c1
21,> 99.5 µM,NCc1cccc(NC(=O)c2cc(C(F)(F)F)cnc2N2CCOCC2)c1
